One assay has as its system SARS-CoV-2 (nCoV/Washington/1/2020). In words: microbe, parasite or virus in culture.
Conditions: not given
The format is cell-based.
As for `Cc1ccc(NC(=O)c2ccc(CN3CCN(C)CC3)cc2)cc1Nc1nc(-c2cccnc2)cs1` [Masitinib], the “Inhibition of SARS-CoV-2 infection when added after infection” value is reported as “effective in inhibiting SARS-CoV-2 infection”.

Still in this assay, the particulars now being: A549-ACE2 cells.
Turning to `COC(=O)N[C@H](C(=O)N1CCC[C@H]1c1nc(-c2ccc3c(c2)O[C@@H](c2ccccc2)n2c-3cc3cc(-c4c[nH]c([C@@H]5CCCN5C(=O)[C@@H](NC(=O)OC)C(C)C)n4)ccc32)c[nH]1)C(C)C` [Elbasvir], the “Inhibition of SARS-CoV-2 infection (in words)” value (“Inhibition … (in words)” below) is “did not inhibit SARS-CoV-2 infection”.

Regarding `C[C@@H]1[C@H](O)[C@@H](C)/C=C/C=C/C=C/C=C/C=C/C=C/C=C/[C@H](O[C@@H]2O[C@H](C)[C@@H](O)[C@H](N)[C@@H]2O)C[C@@H]2O[C@](O)(C[C@@H](O)C[C@@H](O)[C@H](O)CC[C@@H](O)C[C@@H](O)CC(=O)O[C@H]1C)C[C@H](O)[C@H]2C(=O)O` [Amphotericin B], the “Inhibition … (in words)” value is listed as “did not inhibit SARS-CoV-2 infection”. For `Cc1ccc(NC(=O)c2ccc(CN3CCNCC3)cc2)cc1Nc1nc(-c2cccnc2)cs1` [AB3280], the “Inhibition … (in words)” value is “maintains its antiviral activity”.

The same assay, now with this note: Severe acute respiratory syndrome coronavirus 2, A549-ACE2; read-out: EC50 against SARS-CoV-2 infection.
As a reminder, the EC50 is the concentration giving half of the maximal effect. Take `CCC(CC)COC(=O)[C@H](C)N[P@](=O)(OC[C@H]1O[C@@](C#N)(c2ccc3c(N)ncnn23)[C@H](O)[C@@H]1O)Oc1ccccc1` [Remdesivir]: the concentration giving a half-maximal response (EC50) turned out to be 720 nM. `COc1ccc2cc1Oc1ccc(cc1)C[C@H]1c3c(cc4c(c3Oc3cc5c(cc3OC)CCN(C)[C@@H]5C2)OCO4)CCN1C` [Cepharanthine]: the EC50 came out at 100 nM. Same read-out and setting: with `OCCN1CCN(CCC=C2c3ccccc3Sc3ccc(C(F)(F)F)cc32)CC1` [Flupenthixol] the figure was 760 nM; with `CS(=O)(=O)CCNCc1ccc(-c2ccc3ncnc(Nc4ccc(OCc5cccc(F)c5)c(Cl)c4)c3c2)o1` [Lapatinib], 1600 nM; with `CC(CN(C)C)CN1c2ccccc2CCc2ccccc21` (stereo not drawn) [Trimipramine], 1500 nM.

Regarding `Cc1ccc(NC(=O)c2ccc(CN3CC[C@H](N(C)C)C3)c(C(F)(F)F)c2)cc1Nc1nccc(-c2cncnc2)n1` [Bafetinib], the EC50 worked out at 2200 nM. On the same count and under the same terms, as for `CN1CCCC(n2nc(Cc3ccc(Cl)cc3)c3ccccc3c2=O)CC1` (stereo not drawn) [Azelastine], the figure is 2400 nM.

The subject of a further assay is SARS-CoV-2 wild-type, B.1.1.7, B.1.351 and P.1.
Assay: not given
Format: cell-based.
Conditions: not given
For `Cc1ccc(NC(=O)c2ccc(CN3CCN(C)CC3)cc2)cc1Nc1nc(-c2cccnc2)cs1` [Masitinib], the Viral progeny production result is “dramatically reduced viral progeny production”.
